Patent US8324268B2, “Substituted furancarboxamides, and use thereof” (AiCuris GmbH & Co. KG, priority 2008, dated 2012)

Experiments:
Assay type in all cases: cell-based
HIV-1LAI = assay: H9 assay with wild-type HIV-1 (HIV-1LAI supernatant infection, AlamarBlue); conditions: Human immunodeficiency virus 1, H9 cells, 10% FCS
Protocol: For the mixture for a 96-well MTP, 3 million PBLs are pelleted, suspended in 1 ml of RPMI 1640 medium/10% FCS and incubated together with a suitable amount of HIV-1LAI (NIH AIDS Research & Reference Reagent Program, Germantown, USA) at 37° C. for 2 hours (pellet infection). Unadsorbed viruses are subsequently washed out with PBS, and the infected cells are pelleted again and suspended in 18 ml of RPMI 1640 medium/10% FCS/interleukin-2 (40 U/ml). 180 μl thereof are pipetted into each well of a white 96-well MTP with 20 μl of test substance in suitable dilution. Alternatively, after preparation of the substance dilutions in the MTP, the HIV is pipetted in together with the cells and is not washed out again (supernatant infection). In order to avoid edge effects, the wells at the edge of the MTP are not used for substance dilutions. The second vertical row of the MTP contains only infected cells (virus control) and the eleventh vertical row only uninfected cells (cell control), in each case in RPMI 1640 medium/10% FCS/interleukin-2 (40 U/ml). The other wells of the MTP contain the compounds of the invention in various concentrations starting from the third vertical row, from which the test substances are diluted in 3-fold steps up to the tenth vertical row 3^7-fold. The test substances are dissolved in DMSO, whereby the final DMSO concentration in the test mixture is 1%. The test mixtures are incubated at 37° C./5% CO2. After 5 and 7 days, 50 μl of cell-free supernatant are removed from each well to determine the amount of p24 present by means of a p24 ELISA (HIV-1 p24^CA Antigen Capture Assay Kit, NCI-Frederick Cancer Research and Development Center, Frederick, USA). From the resulting values of the photometric evaluation (450/620 nm) the EC50 values of the test substances are determined as the concentration at which the amount of p24 is 50% of the untreated infected cells.
Alternatively, H9 cells (ATCC, Wesel, Germany) are employed instead of PBLs for testing the test substances. H9 cells are incubated in RPMI 1640 medium with 2% or 10% FCS as a HIV-ILAI supernatant infection at 37° C./5% CO2, (20 μl of substance dilution and 80 μl of cells/virus per well) in accordance with the pattern described above for 5 days. Subsequently, 10 μl of AlamarBlue® (Invitrogen, Karlsruhe, Germany) are added to each well, and the MTPs are incubated at 37° C. for 3 hours before the fluorimetric evaluation takes place (544/590 nm). The resulting values are about 40 000 for the untreated uninfected cells and about 7000 for the untreated infected cells. In the low concentration range, the EC50 values of the test substances are determined as the concentration at which the fluorescence is 50% of the untreated uninfected cells (in each case subtracting the values of the untreated infected cells). In addition, in the high concentration range, the CC50 values of the test substances are determined as the concentration at which the fluorescence is 50% of the untreated uninfected cells (in each case subtracting the values of the untreated infected cells).

HIV-1NL4-3 K103N-Y181C = assay: Light assay with inhibitor-resistant HI reporter virus in MT4 7F2 cells; conditions: Human immunodeficiency virus 1, read-out: EC50 (nM) MT4 7F2 cells HIV-1NL4-3 K103N-Y181C 2% FCS
Protocol: (§1) For the mixture for a 96-well MTP, 3 million MT4 7F2 cells are pelleted, suspended in 1 ml of RPMI 1640 medium without phenol red (Invitrogen, Karlsruhe, Germany)/10% FCS/10% AIM-V (Invitrogen, Karlsruhe, Germany) and incubated together with a suitable amount of the corresponding HIV-1NL4-3 reporter virus at 37° C. for 2 hours (pellet infection). Unadsorbed viruses are subsequently washed out with PBS, and the infected cells are pelleted again and suspended in 8 ml of RPMI 1640 medium without phenol red/2% or 10% FCS/10% AIM-V. 80 μl thereof are pipetted into each well of a white 96-well MTP with 20 μl of test substance in suitable dilution. To avoid edge effects, the wells on the edge of the MTP are not used for substance dilutions. The second vertical row of the MTP contains only infected cells (virus control) and the eleventh vertical row only uninfected cells (cell control), in each case in RPMI 1640 medium without phenol red/2% or 10% FCS/10% AIM-V. The other wells of the MTP contain the compounds of the invention in various concentrations starting from the third vertical row, from which the test substances are diluted in 3-fold steps up to the tenth vertical row 3^7-fold. The test substances are dissolved in DMSO, whereby the final DMSO concentration in the test mixture is 1%. The test mixtures are incubated at 37° C./5% CO2 for five days and, after the addition of 15 μl of Lu164 substrate (5 mg/ml coelenterazine dissolved in 30 μM glutathione/DMSO, 100 mM NaCl, 1M MES, 100 mM glutathione), evaluated by luminometry. The resulting values are in the region of 1 000 000 RLUs (relative light units) for the virus control and 300 to 400 RLUs for the cell control. The EC50 values of the test substances are determined as the concentration at which the virus replication measured in RLUs is 50% of the untreated infected cells.

HIV-1NL4-3 wt = assay: Light assay with wild-type HI reporter virus in MT4 7F2 cells; conditions: Human immunodeficiency virus 1, 2% FCS
Protocol: as §1

Compound | EC50 (HIV-1LAI) [nM] | EC50 (HIV-1NL4-3 K103N-Y181C) [nM] | EC50 (HIV-1NL4-3 wt) [nM]
O=C1CN(C(=O)c2cc(-c3cccc(Cl)c3)c(-c3ccc(F)cc3)o2)CCN1 [Example 6, 4-{[4-(3-Chlorophenyl)-5-(4-fluorophenyl)furan-2-yl]carbonyl}piperazin-2-one] | 400 | 283 | 48
O=C1CN(C(=O)c2cc(-c3cccc(Cl)c3)c(-c3ccc(F)c(F)c3)o2)CCN1 [Example 19, 4-{[4-(3-Chlorophenyl)-5-(3,4-difluorophenyl)furan-2-yl]carbonyl}piperazin-2-one] | 250 | 450 | 43
O=C1CN(C(=O)c2cc(-c3cc(F)cc(F)c3)c(-c3cccc(Cl)c3)o2)CN1 [Example 15, 1-{[5-(3-Chlorophenyl-1)-4-(3,5-difluorophenyl)furan-2-yl]carbonyl}imidazolidin-4-one] | 110 | 350 | 9
N#Cc1cc(F)cc(-c2cc(C(=O)N3CCNC(=O)C3)oc2-c2cccc(Cl)c2)c1 [Example 33, 3-{2-(3-Chlorophenyl)-5-[(3-oxopiperazin-1-yl)carbonyl]furan-3-yl}-5-fluorobenzenecarbonitrile] | 25 | 200 | < 1.5
Cc1cc(C)cc(-c2cc(C(=O)N3CCNC(=O)C3)oc2-c2cccc(Cl)c2)c1 [Example 28, 4-{[5-(3-Chlorophenyl)-4-(3,5-dimethylphenyl)furan-2-yl]carbonyl}piperazin-2-one] | 200 | 400 | 30
N#Cc1cc(-c2oc(C(=O)N3CCNC(=O)C3)cc2-c2cccc(Cl)c2)ccc1F [Example 24, 5-{3-(3-Chlorophenol)-5-[(3-oxopiperazin-1-yl)carbonyl]furan-2-yl}-2-fluorobenzenecarbonitrile] | 47 | 320 | 4
N#Cc1cccc(-c2oc(C(=O)N3CC[S+]([O-])C3)cc2-c2cc(F)cc(Cl)c2)c1 (stereo not drawn) [Example 3, 3-{3-(3-Chloro-5-fluorophenyl)-5-[(1-oxido-1,3-thiazolidin-3-yl)carbonyl]furan-2-yl}benzenecarbonitrile] | 4.5 | 160 | < 1.5
N#Cc1cccc(-c2oc(C(=O)N3CNC(=O)C3)cc2-c2cc(F)cc(Cl)c2)c1 [Example 12, 3-{3-(3-Chloro-5-fluorophenyl)-5-[(4-oxoimidazolidin-1-yl)carbonyl]furan-2-yl}benzenecarbonitrile] | 30 | 163 | 2
O=C(c1cc(-c2cc(F)cc(Cl)c2)c(-c2ccc(F)c(Cl)c2)o1)N1CCSC1 [Example 2, [5-(3-Chloro-4-fluorophenyl)-4-(3-chloro-5-fluorophenyl)furan-2-yl](1,3-thiazolidin-3-yl)methanone] | 135 | 1620 | 40
O=C1CN(C(=O)c2cc(-c3cc(F)cc(Cl)c3)c(-c3ccc(F)c(Cl)c3)o2)CCN1 [Example 7, 4-{[5-(3-Chloro-4-fluorophenyl)-4-(3-chloro-5-fluorophenyl)furan-2-yl]carbonyl}piperazin-2-one] | 46 | 186 | 5
N#Cc1cccc(-c2oc(C(=O)N3CCSC3)cc2-c2cc(F)cc(Cl)c2)c1 [Example 1, 3-[3-(3-Chloro-5-fluorophenyl)-5-(1,3-thiazolidin-3-ylcarbonyl)furan-2-yl]benzenecarbonitrile] | 65 | 550 | 4.5
N#Cc1cc(-c2oc(C(=O)N3CNC(=O)C3)cc2-c2cccc(Cl)c2)ccc1F [Example 26, 5-{3-(3-Chlorophenyl)-5-[(4-oxoimidazolidin-1-yl)carbonyl]furan-2-yl}-2-fluorobenzenecarbonitrile] | 150 | 250 | 20
Cc1cccc(-c2oc(C(=O)N3CCNC(=O)C3)cc2-c2cccc(Cl)c2)c1 [Example 18, 4-{[4-(3-Chlorophenyl)-5-(3-methylphenyl)furan-2-yl]carbonyl}piperazin-2-one] | 200 | 300 | 45
Cc1cc(-c2oc(C(=O)N3CCNC(=O)C3)cc2-c2cccc(Cl)c2)ccc1F [Example 21, 4-{[4-(3-Chlorophenyl)-5-(4-fluor-3-methylphenyl)furan-2-yl]carbonyl}piperazin-2-one] | 200 | 120 | 15
N#Cc1cccc(-c2oc(C(=O)N3CCNC(=O)C3)cc2-c2cccc(Cl)c2)c1 [Example 20, 3-{3-(3-Chlorophenol)-5-[(3-oxopiperazin-1-yl)carbonyl]furan-2-yl}benzenecarbonitrile] | 50 | 137 | 2
N#Cc1cc(F)cc(-c2cc(C(=O)N3CCOCC3)oc2-c2cccc(C#N)c2)c1 [Example 34, 3-[2-(3-Cyanophenyl)-5-(morpholin-4-ylcarbonyl)furan-3-yl]-5-fluorobenzenecarbonitrile] | 30 | 300 | < 1.5
O=C1CN(C(=O)c2cc(-c3cccc(Cl)c3)c(-c3ccc(F)c(Cl)c3)o2)CCN1 [Example 22, 4-{[5-(3-Chloro-4-fluorophenyl)-4-(3-chlorophenyl)furan-2-yl]carbonyl}piperazin-2-one] | 113 | 185 | 7
O=C1CN(C(=O)c2cc(-c3cc(F)cc(Cl)c3)c(-c3cccc(Cl)c3)o2)CCN1 [Example 14, 4-{[4-(3-Chloro-5-fluorophenyl)-5-(3-chlorophenyl)furan-2-yl]carbonyl}piperazin-2-one] | 52 | 173 | 1
O=C1CN(C(=O)c2cc(-c3cc(F)cc(F)c3)c(-c3cccc(Cl)c3)o2)CCN1 [Example 17, 4-{[5-(3-Chlorophenyl)-4-(3,5-difluorophenyl)furan-2-yl]carbonyl}piperazin-2-one] | 135 | 350 | 6
O=C1CN(C(=O)c2cc(-c3cc(Cl)ccc3F)c(-c3cccc(Cl)c3)o2)CCN1 [Example 13, 4-{[4-(5-Chloro-2-fluorophenyl)-5-(3-chlorophenyl)furan-2-yl]carbonyl}piperazin-2-one] | 160 | 325 | 15
N#Cc1cc(F)cc(-c2cc(C(=O)N3CNC(=O)C3)oc2-c2ccc(F)c(Cl)c2)c1 [Example 31, 3-{2-(3-Chloro-4-fluorophenyl)-5-[(4-oxoimidazolidin-1-yl)carbonyl]furan-3-yl}-5-fluorobenzenecarbonitrile] | 80 | 80 | 8
